What was measured:
Type in all cases: in vivo
Conditions in all cases: total surfactant 0.2% w/v, 21 days
[1] = tested on: Brachiaria platyphylla (BRAPL); assay: Glasshouse adjuvancy test for mesotrione on BRAPL
Procedure: (§1) Mesotrione was added to the spray tank as a standard SC (suspension concentrate) formulation. The plants were sprayed with mesotrione at rates of 30 or 60 grams of pesticide per hectare using a laboratory track sprayer which delivered the aqueous spray composition at a rate of 200 litres per hectare, using a flat fan nozzle (Teejet 11002VS) and an application volume of 200 litre/ha (at 2 bar). The spray solutions also contained the oleyl 20EO alone or in 1:1 blends with the capped surfactants. The adjuvants were added to the spray solution at a total surfactant rate of 0.2% w/v. All spray solutions also contained 10% w/w of iso-propanol. The weed species and their BBCH growth stage at spraying were Brachiaria platyphylla (BRAPL; growth stage 12-13), Commelina benghalensis (COMBE; growth stage 12-14) and Digitaria sanguinalis (DIGSA; growth stage 13). Each spray test was replicated three times. The test plants were then grown in a glasshouse under controlled conditions (24/18° C. day/night; 16 hours light; 65% humidity) and watered twice a day. The efficacy of the herbicide was assessed visually and expressed as a percentage of the leaf area killed. Samples were assessed at a time period of 21 days following application

[2] = tested on: Commelina benghalensis (COMBE); assay: Glasshouse adjuvancy test for mesotrione on COMBE
Procedure: as §1

[3] = tested on: Digitaria sanguinalis (DIGSA); assay: Glasshouse adjuvancy test for mesotrione on DIGSA
Procedure: as §1

Setaria viridis (SETVI) = assay: Glasshouse adjuvancy test for pinoxaden on SETVI
Procedure: (§2) Pinoxaden was added to the spray tank as a standard EC (emulsifiable concentrate) formulation. The plants were sprayed with pinoxaden at rates of 7.5 or 15 grams of pesticide per hectare using a laboratory track sprayer which delivered the aqueous spray composition at a rate of 200 litres per hectare, using a flat fan nozzle (Teejet 11002VS) at 2 bar. The spray solutions also contained the oleyl 20EO alone or in the 1:1 blends with the capped surfactants. The adjuvants were added to the spray solution at a total surfactant rate of 0.2% w/v. All spray solutions also contained 10% w/w of iso-propanol. The weed species and their BBCH growth stage at spraying were Avena fatua (AVEFA; growth stage 13) and Setaria viridis (SETVI; growth stage 13). Each spray test was replicated three times. The test plants were then grown in a glasshouse under controlled conditions (20/16° C. day/night; 16 hours light; 65% humidity) and watered twice a day. The efficacy of the herbicide was assessed visually and expressed as a percentage of the leaf area killed. Samples were assessed at a time period of 21 days following application.

Avena fatua (AVEFA) = assay: Glasshouse adjuvancy test for pinoxaden on AVEFA
Procedure: as §2, with “The efficacy of 1:1 blends of oleyl 20EO with oleyl 20EO with either n-hexanoyl, n-octanoyl or 2-ethyl hexanoyl ester caps as adjuvants for the herbicide pinoxaden was tested in a glasshouse against two weed species, sown into standard soil in pots and cultivated under controlled conditions in a glasshouse (20/16° C. day/night; 16 hours light; 65% humidity). Pinoxaden” for “Pinoxaden”
Dodecyl 23EO and hexadecyl 20EO were capped with an n-hexyl ether cap. The efficacy of 1:1 blends of these with their uncapped counterparts were tested as adjuvants for the herbicide pinoxaden was tested in a glasshouse against two weed species, sown into standard soil in pots and cultivated under controlled conditions in a glasshouse (20/16° C. day/night; 16 hours light; 65% humidity). Pinoxaden was added to the spray tank as a standard EC (emulsifiable concentrate) formulation. The plants were sprayed with pinoxaden at a.i. rates of 7.5 or 15 grams per hectare using a laboratory track sprayer which delivered the aqueous spray composition at a rate of 200 litres per hectare, using a flat fan nozzle (Teejet 11002VS) at 2 bar. The spray solutions tested included the capped and uncapped alone or in the 1:1 blends with the capped surfactants. The adjuvants were added to the spray solution at a total surfactant rate of 0.2% w/v. All spray solutions also contained 10% w/w of iso-propanol. The weed species and their BBCH growth stage at spraying was Avena fatua (AVEFA; growth stage 12). Each spray test was replicated three times. The test plants were then grown in a glasshouse under controlled conditions (20/16° C. day/night; 16 hours light; 65% humidity) and watered twice a day. The efficacy of the herbicide was assessed visually and expressed as a percentage of the leaf area killed. Samples were assessed at a time period of 21 days following application.
Oleyl 20EO was capped with -butyl, n-pentyl and n-benzyl caps. The efficacy of 1:1 blends of these with their uncapped counterparts were tested as adjuvants for the herbicide pinoxaden was tested in a glasshouse against two weed species, sown into standard soil in pots and cultivated under controlled conditions in a glasshouse (20/16° C. day/night; 16 hours light; 65% humidity). Pinoxaden was added to the spray tank as a standard EC (emulsifiable concentrate) formulation. The plants were sprayed with pinoxaden at a.i. rates of 7.5 or 15 grams per hectare using a laboratory track sprayer which delivered the aqueous spray composition at a rate of 200 litres per hectare, using a flat fan nozzle (Teejet 11002VS) at 2 bar. The spray solutions tested included the capped and uncapped alone or in the 1:1 blends with the capped surfactants. The adjuvants were added to the spray solution at a total surfactant rate of 0.2% w/v. All spray solutions also contained 10% w/w of iso-propanol.

CCCCCCCC/C=C\CCCCCCCCOCCOCCOCCOCCOCCOCCOCCOCCOCCOCCOCCOCCOCCOCCOCCOCCOCCOCCOCCOCCO [Oleyl 20EO, oleyl 20 ethoxylate]
Mean control ([1]; mesotrione 30 g ai/ha): 56.7%
Mean control ([1]; mesotrione 60 g ai/ha): 71.7%
Mean control ([2]; mesotrione 30 g ai/ha): 66.7%
Mean control ([2]; mesotrione 60 g ai/ha): 76.7%
Mean control ([3]; mesotrione 30 g ai/ha): 68.3%
Mean control ([3]; mesotrione 60 g ai/ha): 75.0%
Mean control (Setaria viridis (SETVI); pinoxaden 7.5 g ai/ha): 98.0%
Mean control (Setaria viridis (SETVI); pinoxaden 15 g ai/ha): 98.3%
Mean control (Avena fatua (AVEFA); pinoxaden 7.5 g ai/ha, Example 4): 65.0%
Mean control (Avena fatua (AVEFA); pinoxaden 15 g ai/ha, Example 4): 86.7%
Mean control (Avena fatua (AVEFA); pinoxaden 15 g ai/ha, Example 9, growth stage 12): 92.7%

Reference: US11779014B2, “Adjuvants” (SYNGENTA PARTICIPATIONS AG, priority 2017, dated 2023)
